Several values for one entry are separate records, joined by “and”; a condition that tells them apart may be missing. Equal entries are not always repeated.
Tests used:
[1] = test system: hepatic steatosis induced by MCD diet; test: Histological examination (H&E stain) of liver of MCD diet mice; type: in vivo, Male C57BL/6 mice; conditions: for effect on MCD diet-induced steatohepatitis (H&E staining), in words / Steatosis / Fibrosis / Ballooning / Inflammation / Scores: MCD diet mice; for effect on MCD diet-induced steatohepatitis (H&E staining), in words / Avg / Fibrosis / Ballooning / Inflammation / Sum / Scores: 100 mg/kg oral; for Avg: average of Scores of the group; for Avg / Fibrosis / Ballooning / Inflammation / Sum / Scores: PG/TPSG (1:1); for Steatosis / Fibrosis / Ballooning / Inflammation: score per animal; for Steatosis: 100 mg/kg oral once daily, 5 times a week, in PG/TPSG (1:1); for Sum: sum of Scores of the 4 animals of the group; for Scores: total score per animal
Description: (§1) Animals and experimental protocol: Male C57BL/6 mice, 4 weeks of age, were purchased from Laboratory Animal Center (Taiwan, China) were maintained under the procedures and guidelines provided by the Institutional Animal Care and Use Committee of the Health Research Institutes (Taiwan, China). They were maintained with free access to pellet food and water in stainless-steel cages at a temperature of 21±2° C. with a 12 h light/dark cycle.
(§2) Mice were randomly divided into five groups and treated as follows: (1) MCD diet+PG/TPSG (2) MCD diet+100 mg/kg all compounds. After 28 days, animals were sacrificed for the collection of blood for determination of plasma ALT and AST concentrations, and liver samples for H&E stain.
(§3) After 28 days, animals were sacrificed for the collection of blood for determination of plasma ALT and AST concentrations, and liver samples for H&E stain.

MCD diet NASH mice = test: Serum AST and ALT of compounds treated-NASH mice (MCD diet); type: in vivo, Male C57BL/6 mice; conditions: MCD diet mice; for effect on serum concentrations of AST and ALT, in words: 100 mg/kg oral (Table 2); for Serum ALT (U/L) / Serum AST (U/L): 100 mg/kg oral, PG/TPSG (1:1)
Description: as §1, §2, §3

SMILES	effect on MCD diet-induced steatohepatitis (H&E staining), in words [1]	Avg [1]	Steatosis ([1]; hydrochloride, 100 mg/kg)	Fibrosis [1]	Ballooning ([1]; hydrochloride, 100 mg/kg)	Inflammation ([1]; hydrochloride, 100 mg/kg)	Sum [1]	Scores ([1]; hydrochloride, 100 mg/kg)	effect on serum concentrations of AST and ALT, in words (MCD diet NASH mice)	Serum ALT (U/L) (MCD diet NASH mice)	Serum AST (U/L) (MCD diet NASH mice)	Ballooning [1]	Inflammation [1]	Steatosis [1]	Scores [1]
COc1cc(/C=C/c2ccc(OC(=O)OCCNC(=O)C(C)N)cc2)cc(OC)c1.Cl (stereo not shown) [Compound 5b, (E)-2-(2-aminopropanamido)ethyl (4-(3,5-dimethoxystyryl)phenyl) carbonate hydrochloride]	prevented MCD diet-induced steatohepatitis	4.5	2 (3×) and 3	0	1 (3×) and 2	2 and 1 (3×)	19	5 and 4 (2×) and 6	significantly inhibited the serum concentrations of AST and ALT	180.88 U/L	235.25 U/L	–	–	–	–
COc1cc(/C=C/c2ccc(OC(=O)OCCNC(=O)C(N)CC(C)C)cc2)cc(OC)c1.Cl (stereo not shown) [Compound 5d, (E)-2-(2-amino-4-methylpentanamido)ethyl (4-(3,5-dimethoxystyryl)phenyl) carbonate hydrochloride]	prevented MCD diet-induced steatohepatitis	7.75	3 (3×) and 2	0	–	–	31	8 (3×) and 7	significantly inhibited the serum concentrations of AST and ALT	196.13 U/L	392.25 U/L	2	3	–	–
CCC(C)C(N)C(=O)NCCOC(=O)Oc1ccc(/C=C/c2cc(OC)cc(OC)c2)cc1.Cl (stereo not shown) [Compound 5e, (E)-2-(2-amino-3-methylpentanamido)ethyl (4-(3,5-dimethoxystyryl)phenyl) carbonate hydrochloride]	prevented MCD diet-induced steatohepatitis	7.75	–	0	–	3 (3×) and 2	31	8 (3×) and 7	–	209.62 U/L	419.25 U/L	2	–	3	–
COc1cc(/C=C/c2ccc(OC(=O)OCCNC(=O)C(N)CCSC)cc2)cc(OC)c1.Cl (stereo not shown) [Compound 5f, (E)-2-(2-amino-4-(methylthio)butanamido)ethyl (4-(3,5-dimethoxystyryl)phenyl) carbonate hydrochloride]	prevented MCD diet-induced steatohepatitis	6.25	–	0	1 (3×) and 2	2 (3×) and 1	25	–	significantly inhibited the serum concentrations of AST and ALT	153.00 U/L	241.75 U/L	–	–	2	5
COc1cc(/C=C/c2ccc(OC(=O)OCCNC(=O)C(N)CO)cc2)cc(OC)c1.Cl (stereo not shown) [Compound 5g, (E)-2-(2-amino-3-hydroxypropanamido)ethyl (4-(3,5-dimethoxystyryl)phenyl) carbonate hydrochloride]	prevented MCD diet-induced steatohepatitis	6.5	3 (2×) and 2 (2×)	0	2 (2×) and 1 (2×)	3 (2×) and 2 (2×)	26	8 (2×) and 5 (2×)	–	222.13 U/L	444.25 U/L	–	–	–	–
COc1cc(/C=C/c2ccc(OC(=O)OCCNC(=O)C(N)C(C)O)cc2)cc(OC)c1.Cl (stereo not shown) [Compound 5h, (E)-2-(2-amino-3-hydroxybutanamido)ethyl (4-(3,5-dimethoxystyryl)phenyl) carbonate hydrochloride]	–	8	–	0	–	–	32	–	significantly inhibited the serum concentrations of AST and ALT	150.75 U/L	301.50 U/L	2	3	3	8
COc1cc(/C=C/c2ccc(OC(=O)OCCNC(=O)C(N)Cc3ccccc3)cc2)cc(OC)c1.Cl (stereo not shown) [Compound 5j, (E)-2-(2-amino-3-phenylpropanamido)ethyl (4-(3,5-dimethoxystyryl)phenyl) carbonate hydrochloride]	prevented MCD diet-induced steatohepatitis	7.75	3 (3×) and 2	0	–	–	31	8 (3×) and 7	–	299.00 U/L	598.00 U/L	2	3	–	–
COc1cc(/C=C/c2ccc(OC(=O)OCCNC(=O)C(N)CC(N)=O)cc2)cc(OC)c1.Cl (stereo not shown) [Compound 5p, (E)-2-(2,4-diamino-4-oxobutanamido)ethyl (4-(3,5-dimethoxystyryl)phenyl) carbonate hydrochloride]	prevented MCD diet-induced steatohepatitis	7.75	3 (3×) and 2	0	–	–	31	8 (3×) and 7	significantly inhibited the serum concentrations of AST and ALT	288.50 U/L	327.00 U/L	2	3	–	–
COc1cc(/C=C/c2ccc(OC(=O)OCCNC(=O)C3CCCN3)cc2)cc(OC)c1.Cl (stereo not shown) [Compound 5t, (E)-4-(3,5-dimethoxystyryl)phenyl (2-(pyrrolidine-2-carboxamido)ethyl) carbonate hydrochloride]	prevented MCD diet-induced steatohepatitis	7.75	3 (3×) and 2	0	–	–	31	8 (3×) and 7	–	263.00 U/L	370.25 U/L	2	3	–	–
COc1cc(/C=C/c2ccc(OC(=O)OCCNC(=O)C(N)C(C)C)c(OC)c2)cc(OC)c1.Cl (stereo not shown) [Compound 6g, (E)-2-(2-amino-3-methylbutanamido)ethyl (4-(3,5-dimethoxystyryl)-2-methoxyphenyl) carbonate hydrochloride]	prevented MCD diet-induced steatohepatitis	7.75	3 (3×) and 2	0	–	–	31	8 (3×) and 7	–	260.75 U/L	455.25 U/L	2	3	–	–
COc1cc(/C=C/c2ccc(OC(=O)NCCNC(=O)C(N)C(C)C)cc2)cc(OC)c1.Cl (stereo not shown) [Compound 7c, (E)-4-(3,5-dimethoxystyryl)phenyl (2-(2-amino-3-methylbutanamido)ethyl) carbamate hydrochloride]	prevented MCD diet-induced steatohepatitis	7.75	3 (3×) and 2	0	–	–	31	8 (3×) and 7	–	252.13 U/L	435.25 U/L	2	3	–	–
COc1cc(/C=C/c2ccc(OC(=O)NCCNC(=O)C(N)Cc3ccccc3)cc2)cc(OC)c1.Cl (stereo not shown) [Compound 7e, (E)-4-(3,5-dimethoxystyryl)phenyl (2-(2-amino-3-phenylpropanamido)ethyl) carbamate hydrochloride]	prevented MCD diet-induced steatohepatitis	7.75	–	0	–	3 (3×) and 2	31	8 (3×) and 7	–	286.75 U/L	477.00 U/L	2	–	3	–

— patent US12466784B2, “Analogs of pterostilbene amino acid bearing carbonates for treating a non-alcoholic fatty liver disease and nonalcoholic steatohepatitis” (APICAL MOLECULAR BIOTECH CO., LTD., priority 2020, dated 2025)
